Our source for the Activity and EC50 values is ChEMBL document CHEMBL5634122, “Integrated fragment-based drug design and virtual screening techniques for exploring the antidiabetic potential of thiazolidine-2,4-diones: Design, synthesis and in vivo studies” (Eur J Med Chem, 2023).

For one data set, the system named is HEK293. The data set can be described thus: Cytotoxicity against HEK293 cells assessed as reduction in cell viability at 100 to 8000 nM incubated for 24 hrs by MTT assay. The settings on record: human, hek293, 24 h, 8 µM, dose 100-8000 nM. The data set is classed as toxicity, cell-based. (Formazan colour is commonly taken as a measure of viable cells.)
A short description of data set [1]: Toxicity in Swiss albino mouse assessed as reduction in body weight at 10 mg/kg, po measured for 15 days. Type of data set: organism-based. To be noted: in vivo, 360 h, time 15 day.
Data set [2] can be described thus: Toxicity in Zebra fish assessed as change in body weight at 10 mg/kg measured after 10 days. Type of data set: organism-based, Danio rerio. The settings on record: zebrafish, in vivo, 240 h, time 10 day.
For data set [3], the target named is T1, Peroxisome proliferator-activated receptor gamma (Homo sapiens, UniProt P37231).
T1 sequence (P37231 whole entry): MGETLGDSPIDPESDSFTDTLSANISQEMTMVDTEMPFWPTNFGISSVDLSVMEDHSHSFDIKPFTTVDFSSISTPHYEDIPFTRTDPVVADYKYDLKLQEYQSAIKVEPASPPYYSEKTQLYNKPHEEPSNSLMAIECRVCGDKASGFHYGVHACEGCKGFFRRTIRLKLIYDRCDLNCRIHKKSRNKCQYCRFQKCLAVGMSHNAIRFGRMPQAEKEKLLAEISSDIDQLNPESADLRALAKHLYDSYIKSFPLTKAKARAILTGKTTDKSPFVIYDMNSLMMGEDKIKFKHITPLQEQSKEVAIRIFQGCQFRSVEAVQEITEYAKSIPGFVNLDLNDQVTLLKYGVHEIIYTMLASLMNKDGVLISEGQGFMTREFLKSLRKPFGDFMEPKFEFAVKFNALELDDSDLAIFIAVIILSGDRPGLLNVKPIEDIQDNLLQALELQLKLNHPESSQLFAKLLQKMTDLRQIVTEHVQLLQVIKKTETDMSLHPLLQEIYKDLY
Nature of the data set: Agonist activity at PPARgamma in HEK293 cells assessed as transactivation incubated for 5 to 10 mins by microplate reader analysis. Type of data set: cell-based.

Data set [4] deals with Mus musculus. The data set can be described thus: Antidiabetic activity in STZ-induced Swiss albino diabetic mouse model assessed as blood glucose levels at 36 mg/kg, po measured on day 1,3,5,7 and 15 by glucometer. To be noted: time 15 day. Type of data set: functional.
Data set [5] relates to Mus musculus. Nature of the data set: Antidiabetic activity in STZ-induced Swiss albino diabetic mouse model assessed as blood glucose levels at 36 mg/kg, po measured immediately by oral glucose tolerance test (reference value: 234.5 mg/dl). Type of data set: functional.
Data set [6] relates to Mus musculus. Nature of the data set: Antidiabetic activity in STZ-induced Swiss albino diabetic mouse model assessed as blood glucose levels at 36 mg/kg, po measured after 30 mins by oral glucose tolerance test (reference value: 213.5 mg/dl). The data set is classed as functional. To be noted: 0.5 h.
Data set [7] relates to Mus musculus. The data set can be described thus: Antidiabetic activity in STZ-induced Swiss albino diabetic mouse model assessed as blood glucose levels at 36 mg/kg, po measured after 60 mins by oral glucose tolerance test (reference value: 199.16 mg/dl). The data set is classed as functional. To be noted: 1 h.
Data set [8] deals with Mus musculus. The data set can be described thus: Antidiabetic activity in STZ-induced Swiss albino diabetic mouse model assessed as blood glucose levels at 36 mg/kg, po measured after 120 mins by oral glucose tolerance test. The settings on record: 2 h. The data set is classed as functional.
Data set [9] can be described thus: Toxicity in Swiss albino mouse assessed as reduction in body weight at 36 mg/kg, po measured for 15 days. The data set is classed as organism-based. The settings on record: in vivo, 360 h, time 15 day.
In data set [10] the test system is Mus musculus. The data set can be described thus: Antidiabetic activity in STZ-induced Swiss albino diabetic mouse model assessed as reduction in LDL level in serum at 36 mg/kg, po (reference value: 61.83 +/- 4.08 mg/dl). The data set is classed as functional.
Data set [11] has as its system Mus musculus. Nature of the data set: Antidiabetic activity in STZ-induced Swiss albino diabetic mouse model assessed as reduction in triglyceride level in serum at 36 mg/kg, po (reference value: 131.83 +/- 12.12 mg/dl). The data set is classed as functional.
The test system of data set [12] is Mus musculus. Nature of the data set: Antidiabetic activity in STZ-induced Swiss albino diabetic mouse model assessed as increase in HDL level in serum at 36 mg/kg, po (reference value: 26 +/- 4.83 mg/dl). The data set is classed as functional.
Data set [13] deals with Mus musculus. Nature of the data set: Antidiabetic activity in STZ-induced Swiss albino diabetic mouse model assessed as increase in total cholesterol level in serum at 36 mg/kg, po (reference value: 51.16 +/- 6.89 mg/dl). Type of data set: functional.
In the next data set the test system is Danio rerio. Nature of the data set: Antidiabetic activity in STZ-induced Zebra fish diabetic model assessed as blood glucose level at 36 mg/kg measured after 10 days. To be noted: time 10 day. The data set is classed as functional.

With `Cc1ccc(CN2C(=O)S/C(=C\c3ccc(Nc4cccc(Cl)c4)s3)C2=O)cc1`, the Activity entry (in the data set on HEK293; in data set [1]; in data set [2]) was “Non-Toxic” throughout.
For `Cc1ccc(CN2C(=O)S/C(=C\c3ccc(Nc4ccc([N+](=O)[O-])cc4)s3)C2=O)cc1`, the Activity result with HEK293 is on record as “Non-Toxic”. For the same molecule, the EC50 (as a rule, the concentration at which the effect is half-maximal) in [3] amounted to 1.55 µM.
Taken in the same sequence, the figures for `Cc1ccc(CN2C(=O)S/C(=C\c3ccc(Oc4ccc5ccccc5c4)s3)C2=O)cc1` were “Non-Toxic” and 3.57 µM.
Turning to `COc1cccc(CN2C(=O)S/C(=C\c3ccc(Nc4ccc(Cl)cc4)cc3)C2=O)c1`, the Activity result in the data set with HEK293 is listed as “Non-Toxic”.
Consider `Cc1ccc(CN2C(=O)S/C(=C\c3ccc(Oc4ccc([N+](=O)[O-])cc4)s3)C2=O)cc1`, for which the Activity result in the data set with HEK293 is “Non-Toxic”. The EC50 in [3] is 1.54 µM.
For `Cc1ccc(CN2C(=O)S/C(=C\c3ccc(Nc4ccccc4Cl)s3)C2=O)cc1`, the Activity entry (in the data set on HEK293; in data set [2]) was “Non-Toxic” throughout.
`Cc1ccc(CN2C(=O)S/C(=C\c3ccc(Nc4ccc(Cl)cc4)cc3)C2=O)cc1`: the Activity entry in the data set with HEK293 was “Non-Toxic”. The EC50 in data set [3] turned out to be 1.36 µM.
Regarding `Cc1ccc(CN2C(=O)S/C(=C\c3ccc(Nc4ccc(Cl)cc4)s3)C2=O)cc1`, the Activity result in the data set with HEK293 is given as “Non-Toxic”. In addition, the EC50 in data set [3] amounted to 1.47 µM.
Taken in the same sequence, the figures for `Cc1ccc(CN2C(=O)S/C(=C\c3ccc(OCc4ccccc4)s3)C2=O)cc1` were “Non-Toxic” and 2.01 µM.
For the molecule `COc1cccc(CN2C(=O)S/C(=C\c3ccc(Nc4cccc(Cl)c4)cc3)C2=O)c1`, the Activity result with HEK293 is “Non-Toxic”.
Still for that read-out and setting: next, `Cc1ccc(CN2C(=O)S/C(=C\c3ccc(Nc4ccccc4[N+](=O)[O-])s3)C2=O)cc1`: “Non-Toxic”.
Turning to `Cc1ccc(CN2C(=O)S/C(=C\c3ccc(Oc4ccccc4)s3)C2=O)cc1`, the Activity result in the data set on HEK293 is on record as “Non-Toxic”. Besides, the EC50 in data set [3] was 2.74 µM.
As for `CCc1ccc(CCOc2ccc(CC3SC(=O)NC3=O)cc2)nc1` (centres undefined) [PIOGLITAZONE], the Activity entry with HEK293 was “Non-Toxic”; in the data set with Mus musculus [4], 132.2 mg/dL; with Mus musculus [5], 234.8 mg/dL; in the data set with Mus musculus [6], 214.16 mg/dL; with Mus musculus [7] it was 150.83 mg/dL; with Mus musculus [8], 112 mg/dL. In addition, the Activity entry was “Non-Toxic” in data set [9]; 30.16 mg/dL with Mus musculus [10]; 52 mg/dL in the data set on Mus musculus [11]; 26 mg/dL in the data set on Mus musculus [12]; 51.16 mg/dL with Mus musculus [13]; 112 mg/dL with Danio rerio.
